Test results published in patent publication US7264956B2, “Compounds and methods for inhibiting axillary malodour” (Givaudan SA, priority 2001, dated 2007).

Experiments:
[1] = test system: Corynebacterium group G; assay: Cleavage of the natural malodour precursor by axilla isolate Ax7; assay type: cell-based; settings: 500 ppm precursor, 24 h, 36° C., capillary GC
Method: (§1) The axillary flora of 8 panellists was isolated with the detergent-scrub method: A 6 cm^2 area of the axilla was scrubbed with a phosphate buffer at pH 7 containing 1% Tween 80. The samples were spread-plated on tryptic soy agar amended with 5 g/L of Tween 80 and 1 g/L of lecithin. Single isolates obtained after 48 h incubation were subcultured and characterised. A total of 24 individual strains were identified based on colony and cell morphology, gram-reaction, lipophilic growth, lipase reaction and API identification kits (bioMerieux, France; coryneforms with the API coryne kit and cocci with the ID Staph 32 kit). The strains were grown overnight in a liquid medium (Mueller-Hinton amended with 0.01% Tween 80), harvested by centrifugation and resuspended to a final OD600 of 1 in a semi-synthetic medium (Per litre: 3 g KH2PO4, 1.9 g K2HPO4, 0.2 g yeast extract, 0.2 g MgSO4, 1.4 g NaCl, 1 g NH4Cl, 10 mg MnCl2, 1 mg Fe3Cl2, 1 mg CaCl2). Aliquots of this stationary culture were then amended with a final concentration of 500 ppm of Nα-3-hydroxy-3-methyl-hexanoyl-L-glutamine (5% stock solution dissolved in methanol). After 24 h incubation (with shaking at 300 rpm; 36° C.) the samples were extracted and the amount of released 3-hydroxy-3-methyl-hexanoic acid was determined by capillary GC. […]

[2] = test system: Staphylococcus capitis; assay: Cleavage of the natural malodour precursor by axilla isolate Ax1; assay type: cell-based; settings: 500 ppm precursor, 24 h, 36° C., capillary GC
Method: as §1

[3] = test system: Micrococcus luteus; assay: Cleavage of the natural malodour precursor by axilla isolate Ax9; assay type: cell-based; settings: 500 ppm precursor, 24 h, 36° C., capillary GC
Method: as §1

[4] = test system: Corynebacterium bovis; assay: Cleavage of the natural malodour precursor by axilla isolate Ax3; assay type: cell-based; settings: 500 ppm precursor, 24 h, 36° C., capillary GC
Method: as §1

[5] = test system: Staphylococcus epidermidis; assay: Cleavage of the natural malodour precursor by axilla isolate Ax6; assay type: cell-based; settings: 500 ppm precursor, 24 h, 36° C., capillary GC
Method: as §1

[6] = test system: Corynebacterium jeikeium; assay: Cleavage of the natural malodour precursor by axilla isolate Ax19; assay type: cell-based; settings: 500 ppm precursor, 24 h, 36° C., capillary GC
Method: as §1

[7] = target: T1, enzyme extracted from Corynebacterium striatum A×20 (AMRE, Nα-acyl-glutamine-aminoacylase) (Corynebacterium striatum, UniProt Q8GGD4); assay: Substrate specificity of the enzyme (capillary GC of released acid or alcohol); assay type: biochemical; settings: 500 ppm in Buffer A, 24 h incubation
T1 construct: an enzyme may be isolated from cellular extracts obtained from wild-type bacterial strains; endogenous in cells; host or cells: Corynebacterium striatum Ax20 (DSM 14267), mechanically disrupted; crude extract or chromatographically purified enzyme
T1 sequence (Q8GGD4 2-400): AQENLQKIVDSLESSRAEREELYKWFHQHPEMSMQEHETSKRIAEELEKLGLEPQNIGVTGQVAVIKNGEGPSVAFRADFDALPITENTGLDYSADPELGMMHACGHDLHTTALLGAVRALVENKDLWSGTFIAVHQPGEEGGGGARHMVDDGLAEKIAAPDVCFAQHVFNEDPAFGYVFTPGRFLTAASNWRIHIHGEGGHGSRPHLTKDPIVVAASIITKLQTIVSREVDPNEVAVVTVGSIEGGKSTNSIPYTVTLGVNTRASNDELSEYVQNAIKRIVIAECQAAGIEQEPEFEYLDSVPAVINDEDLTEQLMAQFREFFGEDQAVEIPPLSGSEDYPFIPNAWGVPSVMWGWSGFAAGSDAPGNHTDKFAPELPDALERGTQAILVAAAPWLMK
Method: To understand in detail the structural requirements of substrates, the enzyme extracted from Corynebacterium striatum A×20 was incubated with a wide variety of said compounds related to the originally isolated Nα-3-methyl-3-hydroxy-hexanoyl-L-glutamine present in sweat. Each compound was used at a concentration of 500 ppm in Buffer A, and analysis of released acid or alcohol was done by capillary GC after 24 h of incubation. First, different modifications at the N-terminus were tested.

[8] = test system: Corynebacterium striatum; assay: Cleavage of the natural malodour precursor by axilla isolate Ax20; assay type: cell-based; settings: 500 ppm precursor, 24 h, 36° C., capillary GC
Method: as §1

[9] = test system: Corynebacterium jeikeium; assay: Cleavage of the natural malodour precursor by axilla isolate Ax15; assay type: cell-based; settings: 500 ppm precursor, 24 h, 36° C., capillary GC
Method: as §1

SMILES: CCCC(C)(O)CC(=O)N[C@@H](CCC(N)=O)C(=O)O (stereo partly drawn) [compound 1, Nα-(3-hydroxy-3-methyl-hexanoyl)-L-glutamine]
- 3-hydroxy-3-methyl-hexanoic acid released [1]: 0 ppm
- 3-hydroxy-3-methyl-hexanoic acid released [2]: 0 ppm
- 3-hydroxy-3-methyl-hexanoic acid released [3]: 0 ppm
- 3-hydroxy-3-methyl-hexanoic acid released [4]: 0 ppm
- 3-hydroxy-3-methyl-hexanoic acid released [5]: 0 ppm
- 3-hydroxy-3-methyl-hexanoic acid released [6]: 105.1 ppm
- Cleavage by enzyme [7]: ++ (++ cleavage 10–50%)
- 3-hydroxy-3-methyl-hexanoic acid released [8]: 262.7 ppm
- 3-hydroxy-3-methyl-hexanoic acid released [9]: 37.4 ppm
